Measurements as given in PubChem BioAssay AID328 (DTP/NCI, 2004).
Inconclusive results and toxic doses are left out. The calls were made as follows: active = survival T/C of 150% or more; inactive = T/C below 125% in these data.

Test system: BDF1 mice, P388 leukemia ip, median survival T/C
Assay: NCI In Vivo Anticancer Drug Screen. Data for tumor model P388 Leukemia (intraperitoneal) in B6D2F1 (BDF1) mice
Conditions: endpoint: median survival time, higher = longer survival
Outline: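 Each value expresses how treatment altered survival: treated-mouse outcome over vehicle-mouse outcome, both groups bearing the transplanted tumour.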

[1] = dose: 50.0 mg/kg/injection, schedule: Q01DX009 (ip), vehicle: saline with Tween-80
[2] = dose: 100.0 mg/kg/injection, schedule: Q01DX009 (ip), vehicle: saline with Tween-80
[3] = dose: 200.0 mg/kg/injection, schedule: Q01DX009 (ip), vehicle: saline with Tween-80
[4] = dose: 100.0 mg/kg/injection, schedule: Q01DX009 (ip), vehicle: saline
[5] = dose: 200.0 mg/kg/injection, schedule: Q01DX009 (ip), vehicle: saline
[6] = dose: 100.0 mg/kg/injection, schedule: Q04DX003 (ip), vehicle: Klucel (hydroxypropylcellulose) (HPC)
[7] = dose: 200.0 mg/kg/injection, schedule: Q04DX003 (ip), vehicle: Klucel (hydroxypropylcellulose) (HPC)
[8] = dose: 400.0 mg/kg/injection, schedule: Q04DX003 (ip), vehicle: Klucel (hydroxypropylcellulose) (HPC)

Measured: T/C

COc1ccc(C(=O)/C=C/c2ccc(OCc3ccccc3)c(OC)c2)cc1OC
inactive: dose: 50.0 mg/kg/injection, schedule: Q01DX009 (ip), vehicle: water 111 % of control | dose: 50.0 mg/kg/injection, schedule: Q04DX003 (ip), vehicle: water 101 % of control | dose: 100.0 mg/kg/injection, schedule: Q01DX009 (ip), vehicle: water 114 % of control | dose: 100.0 mg/kg/injection, schedule: Q04DX003 (ip), vehicle: water 94 % of control | dose: 200.0 mg/kg/injection, schedule: Q01DX009 (ip), vehicle: water 104 % of control | dose: 200.0 mg/kg/injection, schedule: Q04DX003 (ip), vehicle: water 102 % of control | dose: 400.0 mg/kg/injection, schedule: Q01DX009 (ip), vehicle: water 114 % of control | dose: 400.0 mg/kg/injection, schedule: Q04DX003 (ip), vehicle: water 100 % of control

CC(C)NC(=O)N(C(=O)C(F)(F)F)C(C)C
inactive: [1] 105 % of control | [2] 94 % of control | [3] 95 % of control

CSC1(CC(=O)N2CCCCC2)C(=O)Nc2ccccc21 (configuration not stated)
inactive: dose: 50.0 mg/kg/injection, schedule: Q04DX002 (ip), vehicle: saline with Tween-80 95 % of control | dose: 100.0 mg/kg/injection, schedule: Q04DX002 (ip), vehicle: saline with Tween-80 101 % of control | dose: 200.0 mg/kg/injection, schedule: Q04DX002 (ip), vehicle: saline with Tween-80 95 % of control

O=Cc1cc(O)ccc1[N+](=O)[O-]
inactive: [1] 95 % of control | [2] 104 % of control | dose: 100.0 mg/kg/injection, schedule: Q04DX003 (ip), vehicle: saline with Tween-80 104 % of control | [3] 100 % of control | dose: 200.0 mg/kg/injection, schedule: Q04DX003 (ip), vehicle: saline with Tween-80 90 % of control

CC(O)C(O)C(O)C(/C=N\NC(N)=S)=N/NC(N)=S (configuration not stated)
inactive: [4] 92 % of control | [5] 100 % of control | dose: 400.0 mg/kg/injection, schedule: Q01DX009 (ip), vehicle: saline 88 % of control

c1ccc(CCN2CCC(CCc3c[nH]c4ccccc34)CC2)cc1
inactive: dose: 12.5 mg/kg/injection, schedule: Q01DX010 (ip), vehicle: saline 100 % of control | dose: 25.0 mg/kg/injection, schedule: Q01DX010 (ip), vehicle: saline 109 % of control | dose: 50.0 mg/kg/injection, schedule: Q01DX010 (ip), vehicle: saline 122 % of control | dose: 100.0 mg/kg/injection, schedule: Q01DX010 (ip), vehicle: saline 114 % of control

ClCCOCCOc1ccc(C2CCCCC2)cc1
inactive: dose: 100.0 mg/kg/injection, schedule: Q04DX003 (ip), vehicle: saline 100 % of control | dose: 200.0 mg/kg/injection, schedule: Q04DX003 (ip), vehicle: saline 100 % of control | dose: 400.0 mg/kg/injection, schedule: Q04DX003 (ip), vehicle: saline 100 % of control

c1ccc(-c2c[nH]c(-c3ccccc3)c2)cc1
inactive: [6] 104 % of control | [7] 109 % of control | [8] 109 % of control

COC(=O)C(C)CN1CCCCC1 (configuration not stated)
inactive: dose: 50.0 mg/kg/injection, schedule: Q01DX009 (ip), vehicle: saline 105 % of control | [4] 110 % of control | [5] 110 % of control

Clc1ccc(CSc2ncnc3nc[nH]c23)cc1
inactive: [2] 100 % of control | [3] 104 % of control

O=C(O)/C=C/C(=O)Nc1cccc(Oc2ccc([N+](=O)[O-])cc2[N+](=O)[O-])c1
inactive: [4] 118 % of control | dose: 100.0 mg/kg/injection, schedule: Q04DX003 (ip), vehicle: other 100 % of control | [5] 122 % of control | dose: 200.0 mg/kg/injection, schedule: Q04DX003 (ip), vehicle: other 100 % of control | dose: 400.0 mg/kg/injection, schedule: Q04DX003 (ip), vehicle: other 91 % of control

O=C(CCl)c1ccc[nH]1
inactive: dose: 25.0 mg/kg/injection, schedule: Q04DX003 (ip), vehicle: Klucel (hydroxypropylcellulose) (HPC) 95 % of control | dose: 50.0 mg/kg/injection, schedule: Q04DX003 (ip), vehicle: Klucel (hydroxypropylcellulose) (HPC) 91 % of control

CC1=C/C(=N\N=C2/C=C(C)CC(C)(C)C2)CC(C)(C)C1
inactive: [6] 104 % of control | [7] 109 % of control | [8] 100 % of control
